Measurements reported in patent US20240066152A1, “CONTRAST AGENT FOR DETECTING CARTILAGE DAMAGE AND METHOD AND PROGRAM FOR EXAMINING CARTILAGE DAMAGE USING SAID CONTRAST AGENT” (NATIONAL UNIVERSITY CORPORATION HOKKAIDO UNIVERSITY, priority 2020, published 2024).

Tested on: articular cartilage of the rabbit knee joint (both femoral condyles), ACLT model
Experiment: MRI evaluation of articular cartilage damage in the anterior cruciate ligament transection (ACLT) model using ^17O-labeled water
Assay type: in vivo, Japanese white rabbits
Protocol: An ACLT model was created using 14-week-old male Japanese white rabbits to induce cartilage damage in the knee joint. The rabbits were anesthetized intravenously with pentobarbital (30 mg/kg) and ketamine (50 mg/kg), followed by inhalation anesthesia with isoflurane (1 to 4%) for maintenance anesthesia. The anterior surface of the knee joint on the operative side was shaved, was disinfected with povidone-iodine, and then an analgesic (buprenorphine 0.02 mg/kg) was subcutaneously administered by injection. Skin incision of about 5 cm was placed on the medial side of the patella, and the joint capsule was incised in a similar position. The patella was dislocated laterally, and the knee joint was deeply flexed to expose the anterior cruciate ligament of the femoral intercondylar part, which was separated using a No. 11 scalpel. After washing the inside of the joint with a physiological saline solution, the joint capsule and the skin were sutured using 3-0 nylon thread. Postoperatively, euthanasia was performed if wound infection was observed or in the case of an inability to stand.
It has been reported that in the ACLT model, degeneration of cartilage surface begins at 4 weeks postoperatively and occurs in the entire cartilage layer from 8 weeks postoperatively (Makoto Yoshioka et al. Characterization of a model of osteoarthritis in the rabbit knee. Osteoarthritis and Cartilage, 1996, 4 (2): 87-98), and thus five rabbits were slaughtered and euthanized with pentobarbital (200 mg/kg) each at 4 weeks and 8 weeks postoperatively, and cartilage damage was evaluated by MRI and macroscopically and histologically.
MRI Imaging Using a 3T-MRI apparatus (MAGNETOM Prisma, Siemens), imaging of the rabbit knee joint on the operative side was performed. The affected rabbit limb was disarticulated at the thigh and was fixed at the knee joint extension to avoid the influence of body movement during imaging. A 24G Surflo needle was inserted from the anterior surface of the knee joint through the patellar tendon and was indwelled in the joint. […]

With ^17O-labeled water the “change over time in ^17O concentration in ROI 1 and ROI 2 (damaged cartilage region)” value (immediately after administration (fourth imaging), calculated from average T2-weighted signal values in each ROI, 4 weeks postoperatively) was “showed an increase in the ^17O concentration”, the “^17O concentration (^17O map calculated from signal values of T2-weighted image)” value (representative case 4 weeks postoperatively, about 11 minutes after administration (sixth imaging), 0.5 ml saline containing 20-mol % ^17O-labeled water into knee joint of disarticulated limb) was “higher in the region where cartilage damage was observed” and the “change over time in ^17O concentration in ROI 3 and ROI 4 (normal cartilage region)” value (with administration of ^17O-labeled water, calculated from average T2-weighted signal values in each ROI, 4 weeks postoperatively) was “showed no tendency of an increase in the ^17O concentration”.
